Measurements taken from PMC5432998, “Recombinant expression of thermostable processive MtEG5 endoglucanase and its synergism with MtLPMO from Myceliophthora thermophila during the hydrolysis of lignocellulosic substrates” (Biotechnology for Biofuels, 2017).

Molecular target: T1, MtEG5A (Thermothelomyces thermophilus, UniProt G2Q5D8)
T1 construct: gene MYCTH_86753; mature GH5 with CBM1; ORF 389 aa, signal peptide removed (printed MKSSILASVFATGAVA); C-terminal myc/His tag; Pichia pastoris X33
T1 sequence (G2Q5D8 17-389): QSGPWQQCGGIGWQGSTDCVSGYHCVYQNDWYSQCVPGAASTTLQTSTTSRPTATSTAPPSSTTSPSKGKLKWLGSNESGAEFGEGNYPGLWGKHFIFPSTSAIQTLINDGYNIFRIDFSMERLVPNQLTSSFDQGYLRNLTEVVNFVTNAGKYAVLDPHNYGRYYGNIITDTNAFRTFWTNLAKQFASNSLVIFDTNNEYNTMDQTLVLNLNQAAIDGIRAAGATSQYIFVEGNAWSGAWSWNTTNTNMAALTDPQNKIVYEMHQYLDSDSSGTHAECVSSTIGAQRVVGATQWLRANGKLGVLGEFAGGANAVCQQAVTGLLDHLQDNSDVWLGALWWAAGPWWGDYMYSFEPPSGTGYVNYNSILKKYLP
Experiment: HPAEC-PAD hydrolysis time course
Assay type: biochemical
Details: 40 uM substrate; citrate-phosphate pH 5.0; 50 °C

| Structure (SMILES) | HPAEC-PAD hydrolysis time course |
| --- | --- |
| OC[C@H]1O[C@@H](O[C@H]2[C@H](O)[C@@H](O)[C@H](O[C@H]3[C@H](O)[C@@H](O)[C@H](O[C@H]4[C@H](O)[C@@H](O)[C@H](O[C@H]5[C@H](O)[C@@H](O)C(O)O[C@@H]5CO)O[C@@H]4CO)O[C@@H]3CO)O[C@@H]2CO)[C@H](O)[C@@H](O)[C@@H]1O (some centres unmarked) [G5, cellopentaose] | the enzyme catalyzed the hydrolysis of G5, the products were G2 and G3 |
| OC[C@H]1O[C@@H](O[C@H]2[C@H](O)[C@@H](O)[C@H](O[C@H]3[C@H](O)[C@@H](O)[C@H](O[C@H]4[C@H](O)[C@@H](O)[C@H](O[C@H]5[C@H](O)[C@@H](O)[C@H](O[C@H]6[C@H](O)[C@@H](O)C(O)O[C@@H]6CO)O[C@@H]5CO)O[C@@H]4CO)O[C@@H]3CO)O[C@@H]2CO)[C@H](O)[C@@H](O)[C@@H]1O (some centres unmarked) [G6, cellohexaose] | The comparison of catalytic efficiency (k cat /K m) values of MtEG5A against the oligosaccharides |
